pEC50, pIC50: −log10 of the molar value.
Assays:
Spry4 = assay: Zebrafish mRNA microinjection, rescue of sef expression, spry4; assay type: in vivo; conditions: 5 μM BCI, shield stage
Procedure: (§1) dusp6 and XFD mRNA for microinjection studies were generated as previously described (Tsang, M. et al. Development 131, 2769-79 (2004)). Both Dusp5 and Spry4 ORFs were amplified by RT-PCR from 24 hpf zebrafish with the following primers: […]
(§2) Amplified PCR products were subcloned into pCS2+, sequenced verified and mRNAs were synthesized as described previously. Embryos were injected with 500 pg mRNA at the 1-2 cell stage, treated with 5 μM BCI at the 1000-cell stage and fixed at shield stage for in situ hybridization.
(§3) In situ hybridization experiments were carried out as described previously (Kudoh, T. et al. Genome Res 11, 1979-87 (2001)). The probes eng3, krox20, sef, dusp6, gata4, nkx2.5, cmlc2, vmhc, scl, etsrp and hand2 were generated with a RNA labeling kit (Roche) (Tsang, M. et al. Development 131, 2769-79 (2004); Chen, J. N. et al. Development 122, 3809-16 (1996); Ekker, M., et al. Development 116, 1001-10 (1992); Liao, E. C. et al. Genes Dev 12, 621-6 (1998); Oxtoby, E. et al. Nucleic Acids Res 21, 1087-95 (1993); Pham, V. N. et al. Dev Biol 303, 772-83 (2007); Tsang, M., et al. Nat Cell Biol 4, 165-9 (2002); Yelon, D., et al. Dev Biol 214, 23-37 (1999); and Yelon, D. et al. Development 127, 2573-82 (2000)). The double fluorescent in situ hybridization protocol was described by Schoenbeck et al. (Dev Cell 13, 254-67 (2007)). […]

[1] = test system: FGF target genes sef and spry4; assay: Semi-quantitative RT-PCR of FGF target genes in treated embryos; assay type: in vivo, zebrafish; conditions: 24 hpf, 6 hours, 10 μM and 20 μM, n=3
Procedure: Zebrafish embryos were treated at 24 hpf for 6 hours with BCI at 10 μM and 20 μM followed by total RNA extraction with Trizol (Invitrogen). cDNA synthesis with SuperScript II Reverse Transcriptase (Invitrogen) was performed as described by manufacture's protocol and by Tsang et al. 17. For PCR reaction, HotMaster Taq (Eppendorf) was used with the following primers: […]
Cycle conditions were: 94° C. 30 sec, 55° C. 45 sec, 72° C. 40 sec, for 25 cycles. PCR products were resolved on 3% agarose gels.

[2] = test system: FGF signaling (Tg(Dusp6:dsEGFP) reporter); assay: Dose response of GFP expression in Tg(Dusp6:dsEGFP) embryos, automated imaging; assay type: in vivo, zebrafish; conditions: Danio rerio; treated at 24 hpf, 6 hours; read-out: EC50, GFP expression in transgenic embryos
Procedure: We tested a series of structurally related analogs of BCI in an in vivo assay. As described in Molina et al. (Nature Chemical Biology, 2009), Tg(Dusp6:dsEGFP) embryos were treated at 24 hours post fertilization with increasing doses of compounds. After 6 hours treatment, embryos were imaged by the IXU ImageXpress (Molecular Devices), and images were processed by Definiens Software. The software identified bright head structures and measured fluorescence.
Under similar conditions, BCI-related analogs were tested and EC50 values measured.

Dusp5 = assay: Zebrafish mRNA microinjection, rescue of sef expression, dusp5; assay type: in vivo; conditions: 5 μM BCI, shield stage
Procedure: as §1, §2, §3

ERK2-stimulated Dusp6 = target: T1, ERK2-stimulated Dusp6 (Homo sapiens, UniProt Q16828); assay: ERK2-induced activation of Dusp6, OMFP dephosphorylation; assay type: biochemical; conditions: BCI 100 μM
T1 construct: His; made in house
T1 sequence (Q16828 whole entry): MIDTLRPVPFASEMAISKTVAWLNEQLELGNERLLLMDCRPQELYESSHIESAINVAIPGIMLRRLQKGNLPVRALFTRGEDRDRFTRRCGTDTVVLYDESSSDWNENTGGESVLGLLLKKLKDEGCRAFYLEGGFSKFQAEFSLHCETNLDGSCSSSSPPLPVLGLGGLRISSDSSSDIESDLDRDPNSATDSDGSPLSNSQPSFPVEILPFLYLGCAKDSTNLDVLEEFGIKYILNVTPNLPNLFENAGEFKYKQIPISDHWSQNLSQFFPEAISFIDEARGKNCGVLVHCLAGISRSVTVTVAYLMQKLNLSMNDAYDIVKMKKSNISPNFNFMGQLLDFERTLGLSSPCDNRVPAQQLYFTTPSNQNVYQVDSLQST
T1 sequence (P28482 whole entry partner): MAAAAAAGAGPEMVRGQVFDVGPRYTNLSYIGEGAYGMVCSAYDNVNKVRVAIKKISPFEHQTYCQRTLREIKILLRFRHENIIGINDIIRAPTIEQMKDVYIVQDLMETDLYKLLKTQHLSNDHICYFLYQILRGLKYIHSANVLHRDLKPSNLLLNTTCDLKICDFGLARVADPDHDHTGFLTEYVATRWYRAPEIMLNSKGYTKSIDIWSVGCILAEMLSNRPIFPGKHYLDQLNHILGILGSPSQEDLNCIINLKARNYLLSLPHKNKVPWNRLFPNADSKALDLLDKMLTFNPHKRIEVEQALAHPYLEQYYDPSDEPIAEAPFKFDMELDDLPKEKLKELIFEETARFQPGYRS
Procedure: For OMFP based ERK2 induced activation of Dusp6, recombinant His-tagged Dusp6 was expressed from a bacterial expression vector and 250 ng were incubated with the indicated concentrations of NSC95397 or BCI. OMFP was added at its apparent Km (100 μM) (Vogt, A. et al. J Biol Chem 280, 19078-86 (2005)). The final reaction volume was 15 μl. After 1 h at RT, OMF fluorescence was measured on an M5 multimode reader (Molecular Devices) at excitation/emission wavelengths of 485/525 nm. To assay activated Dusp6, 210 ng or 2.1 μg of recombinant ERK2 (Cell signaling) were added to Dusp6(210 ng)/BCI(100 μM) mixtures to measure activation at 1:1 and 1:10 ratio of substrate to enzyme. OMFP was immediately added and fluorescence (ex485/em525 nm) was read every 10 min for 130 min. Fold activation was calculated at 60 mins in each experiment.

Dusp3/VHR = Dusp3/VHR (Homo sapiens, UniProt P51452); assay: OMFP phosphatase assay, Dusp3/VHR; assay type: biochemical; conditions: n=3, OMFP substrate, 15.2 nM-300 μM; read-out: mean in vitro values, VHR
Sequence of Dusp3/VHR (P51452 whole entry): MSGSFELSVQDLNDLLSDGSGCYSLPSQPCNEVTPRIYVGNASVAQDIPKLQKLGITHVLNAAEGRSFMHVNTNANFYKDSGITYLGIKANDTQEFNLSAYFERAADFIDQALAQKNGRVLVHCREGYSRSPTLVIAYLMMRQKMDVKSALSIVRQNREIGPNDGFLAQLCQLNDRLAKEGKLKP
Procedure: Enzyme activities in the presence or absence of BCI were measured using the artificial substrate […] at concentrations equal to the Km of each enzyme (Cdc25B, PTP1B & Dusp3/VHR) and at optimal pH for individual enzyme activity in a 96-well microtiter plate assay based on previously described methods by Lazo et al. (J Med Chem 44, 4042-9 (2001) and Lazo, J. S. et al. Bioorg Med Chem 14, 5643-50 (2006)). Briefly, the standard assay conditions contained 0.02 mg/ml OMFP in assay buffer (30 mM Tris-HCl (pH8.0), 75 mM NaCl, 1 mM EDTA, 0.33% BSA and 1 mM DTT). Fluorescence emission was measured after a sixty-minute incubation period at ambient temperature using a multiwell plate reader (SpectraMax m5, […]; excitation 485 nm, emission 525 nm). Sodium orthovanadate (100 μM) was used as a positive control for full phosphatase inhibition. IC50 concentrations were determined from three experiments using 10 concentrations of BCI ranging from 300 μM to 15.2 nM and GraphPad Prism 5.0 software.

O=C1/C(=C/c2ccccc2)C(NC2CCCCC2)c2ccccc21 (stereo not shown) [Compound 3, (E)-2-benzylidene-3-(cyclohexylamino)-2,3-dihydro-1H-inden-1-one]
reversal of effects of spry4 mRNA on sef expression (Spry4): did not reverse
expression of sef and spry4 [1]: increase
pEC50 [2]: 4.94
reversal of phenotype caused by Dusp5 over-expression (Dusp5): little or no effect
inhibition of ERK2-stimulated Dusp6 dephosphorylation of OMFP (ERK2-stimulated Dusp6; ERK2 three-fold stimulation (1:1)): 57%
inhibition of ERK2-stimulated Dusp6 dephosphorylation of OMFP (ERK2-stimulated Dusp6; ratio of ERK2 to Dusp6 10:1, 7-fold enhancement): 30%
pIC50 (Dusp3/VHR): < 3.52

Source: patent publication US9127016B2, “Small molecule inhibitors of Dusp6 and uses therefor” (University of Pittsburgh—Of the Commonwealth System of …, priority 2009, dated 2015)
